Experimental data reported in ChEMBL document CHEMBL5113452, “Synthesis and biological evaluation of hybrids from optically active ring-opened 3-N-butylphthalide derivatives and 4-fluro-edaravone as potential anti-acute ischemic stroke agents” (Bioorg Med Chem, 2022).
Active and inactive are the calls of the source. The rule behind the calls is not given here.

Assays:
Rattus norvegicus [1] = test: Neuroprotective activity against transient middle cerebral artery occlusion induced ischemia stroke Sprague-Dawley rat model assessed as increase in neuro-fucntional score at 4.53 mg/kg, iv and measured after 24 hrs by longa's method; format: functional, organism-based
Rattus norvegicus [2] = test: Neuroprotective activity against transient middle cerebral artery occlusion induced ischemia stroke Sprague-Dawley rat model assessed as increase in neuro-fucntional score at 4.53 mg/kg, iv and measured after 24 hrs in presence of S-APB by longa's method; format: functional, organism-based
Rattus norvegicus [3] = test: Neuroprotective activity against transient middle cerebral artery occlusion induced ischemia stroke Sprague-Dawley rat model assessed as increase in neuro-fucntional score at 4.10 mg/kg, iv and measured after 24 hrs in presence of NBP by longa's method; format: functional, organism-based; conditions: dose 4.1 mg/kg
[4] = Toxicity in transient middle cerebral artery occlusion induced ischemia stroke Sprague-Dawley rat model assessed as change in body weight at 4.53 mg/kg, iv and measured after 24 hrs; format: organism-based; conditions: in vivo
[5] = Toxicity in transient middle cerebral artery occlusion induced ischemia stroke Sprague-Dawley rat model assessed as change in body weight at 4.53 mg/kg, iv and measured after 24 hrs in presence of S-APB; format: organism-based; conditions: in vivo
[6] = Toxicity in transient middle cerebral artery occlusion induced ischemia stroke Sprague-Dawley rat model assessed as change in body weight at 4.10 mg/kg, iv and measured after 24 hrs in presence of NBP; format: organism-based; conditions: in vivo, 4.1 mg/kg
Rattus norvegicus [7] = test: Neuroprotective activity against transient middle cerebral artery occlusion induced cerebral infraction Sprague-Dawley rat model assessed as decrease in cerebral infraction volume at 4.53 mg/kg, iv and measured after 24 hrs by TTC staining based assay; format: functional; design: scale not given: the % may be the effect or the level left
Rattus norvegicus [8] = test: Neuroprotective activity against transient middle cerebral artery occlusion induced cerebral infraction Sprague-Dawley rat model assessed as decrease in cerebral infraction volume at 4.53 mg/kg, iv and measured after 24 hrs in presence of S-APB by TTC staining based assay; format: functional; design: scale not given: the % may be the effect or the level left
Rattus norvegicus [9] = test: Neuroprotective activity against transient middle cerebral artery occlusion induced cerebral infraction Sprague-Dawley rat model assessed as decrease in cerebral infraction volume at 4.10 mg/kg, iv and measured after 24 hrs in presence of NBP by TTC staining based assay; format: functional; design: scale not given: the % may be the effect or the level left; conditions: dose 4.1 mg/kg
Rattus norvegicus [10] = test: Neuroprotective activity against transient middle cerebral artery occlusion induced cerebral infraction Sprague-Dawley rat model assessed as decrease in brain edema at 4.53 mg/kg, iv and measured after 24 hrs in presence of […]; format: functional, organism-based
Rattus norvegicus [11] = test: Neuroprotective activity against transient middle cerebral artery occlusion induced cerebral infraction Sprague-Dawley rat model assessed as decrease in brain edema at 4.10 mg/kg, iv and measured after 24 hrs in presence of NBP; format: functional, organism-based; conditions: dose 4.1 mg/kg
[12] = Elimination rate constant in Sprague-Dawley rat plasma at 4.53 mg/kg, iv and measured upto 24 hrs by LC-MS/MS analysis; format: ADME, organism-based
[13] = Half life in Sprague-Dawley rat plasma at 4.53 mg/kg, iv and measured upto 24 hrs by LC-MS/MS analysis; format: ADME, organism-based
[14] = Cmax in Sprague-Dawley rat plasma at 4.53 mg/kg, iv and measured upto 24 hrs by LC-MS/MS analysis; format: ADME, organism-based; design: dose 4.53 mg/kg, time < 24 hrs, route iv
[15] = C0 in Sprague-Dawley rat plasma at 4.53 mg/kg, iv and measured upto 24 hrs by LC-MS/MS analysis; format: ADME, organism-based
[16] = AUC (0-t) in Sprague-Dawley rat plasma at 4.53 mg/kg, iv and measured upto 24 hrs by LC-MS/MS analysis; format: ADME, organism-based; design: dose 4.53 mg/kg, time < 24 hrs, route iv
[17] = AUC (0-infinity) in Sprague-Dawley rat plasma at 4.53 mg/kg, iv and measured upto 24 hrs by LC-MS/MS analysis; format: ADME, organism-based; design: time < 24 hrs, dose 4.53 mg/kg, route iv
[18] = AUMC (0-t) in Sprague-Dawley rat plasma at 4.53 mg/kg, iv and measured upto 24 hrs by LC-MS/MS analysis; format: ADME, organism-based; conditions: in vivo
[19] = AUMC (0-infinity) in Sprague-Dawley rat plasma at 4.53 mg/kg, iv and measured upto 24 hrs by LC-MS/MS analysis; format: ADME, organism-based; conditions: in vivo
[20] = Clearance in Sprague-Dawley rat plasma at 4.53 mg/kg, iv and measured upto 24 hrs by LC-MS/MS analysis; format: ADME, organism-based
[21] = MRT in Sprague-Dawley rat plasma at 4.53 mg/kg, iv and measured upto 24 hrs by LC-MS/MS analysis; format: ADME, organism-based
[22] = Volume of distribution at steady state in Sprague-Dawley rat plasma at 4.53 mg/kg, iv and measured upto 24 hrs by LC-MS/MS analysis; format: ADME, organism-based; conditions: read-out: Vdss
[23] = Elimination rate constant in Sprague-Dawley rat plasma at 4.53 mg/kg, iv and measured upto 24 hrs in presence of S-NBP by LC-MS/MS analysis; format: ADME, organism-based
[24] = Half life in Sprague-Dawley rat plasma at 4.53 mg/kg, iv and measured upto 24 hrs in presence of S-NBP by LC-MS/MS analysis; format: ADME, organism-based
[25] = Cmax in Sprague-Dawley rat plasma at 4.53 mg/kg, iv and measured upto 24 hrs in presence of S-NBP by LC-MS/MS analysis; format: ADME, organism-based; design: time < 24 hrs, dose 4.53 mg/kg, route iv
[26] = C0 in Sprague-Dawley rat plasma at 4.53 mg/kg, iv and measured upto 24 hrs in presence of S-NBP by LC-MS/MS analysis; format: ADME, organism-based
[27] = AUC (0-t) in Sprague-Dawley rat plasma at 4.53 mg/kg, iv and measured upto 24 hrs in presence of S-NBP by LC-MS/MS analysis; format: ADME, organism-based; design: time < 24 hrs, dose 4.53 mg/kg, route iv
[28] = AUC (0-infinity) in Sprague-Dawley rat plasma at 4.53 mg/kg, iv and measured upto 24 hrs in presence of S-NBP by LC-MS/MS analysis; format: ADME, organism-based; design: time < 24 hrs, dose 4.53 mg/kg, route iv
[29] = AUMC (0-t) in Sprague-Dawley rat plasma at 4.53 mg/kg, iv and measured upto 24 hrs in presence of S-NBP by LC-MS/MS analysis; format: ADME, organism-based; conditions: in vivo
[30] = AUMC (0-infinity) in Sprague-Dawley rat plasma at 4.53 mg/kg, iv and measured upto 24 hrs in presence of S-NBP by LC-MS/MS analysis; format: ADME, organism-based; conditions: in vivo
[31] = Clearance in Sprague-Dawley rat plasma at 4.53 mg/kg, iv and measured upto 24 hrs in presence of S-NBP by LC-MS/MS analysis; format: ADME, organism-based
[32] = MRT in Sprague-Dawley rat plasma at 4.53 mg/kg, iv and measured upto 24 hrs in presence of S-NBP by LC-MS/MS analysis; format: ADME, organism-based
[33] = Volume of distribution at steady state in Sprague-Dawley rat plasma at 4.53 mg/kg, iv and measured upto 24 hrs in presence of S-NBP by LC-MS/MS analysis; format: ADME, organism-based; conditions: read-out: Vdss

CC1=NN(c2ccc(F)cc2)C(=O)C1
Activity (Rattus norvegicus [1]): Active
Activity (Rattus norvegicus [2]): Active
Activity (Rattus norvegicus [3]): Active
Activity [4]: Non-Toxic
Activity [5]: Non-Toxic
Activity [6]: Non-Toxic
Activity (Rattus norvegicus [7]): 32.46%
Activity (Rattus norvegicus [8]): 68.37%
Activity (Rattus norvegicus [9]): 57.7%
Activity (Rattus norvegicus [10]): Active
Activity (Rattus norvegicus [11]): Active
k el at 24 h [12]: 0.000171 s⁻¹
half-life [13]: 1.14 h
Cmax [14]: 2960 ng/mL
C0 at 24 h [15]: 4910 ng/mL
AUC(0-t) at 24 h [16]: 1350 ng·h/mL
AUC(0-inf) [17]: 1360 ng·h/mL
AUMCt [18]: 903 hr.hr.ng/ml
AUMC [19]: 982 hr.hr.ng/ml
clearance [20]: 55.9 mL/min/kg
MRT [21]: 0.717 h
Vd [22]: 2.39 L/kg
k el at 24 h [23]: 3.75e-05 s⁻¹
half-life [24]: 5.16 h
Cmax [25]: 6100 ng/mL
C0 at 24 h [26]: 12400 ng/mL
AUC(0-t) at 24 h [27]: 2750 ng·h/mL
AUC(0-inf) [28]: 2780 ng·h/mL
AUMCt [29]: 4690 hr.hr.ng/ml
AUMC [30]: 5830 hr.hr.ng/ml
clearance [31]: 27.4 mL/min/kg
MRT [32]: 2.1 h
Vd [33]: 3.45 L/kg
